± gives the standard deviation of the averaged measurements.
Test: TIMS collisional cross section (CCS, N2) of the lipid ion; higher = larger ion cross section
Conditions: ionization mode: positive, one isomer drawn

Compound	TIMS collisional cross section (sample type: HeLa) [Å²]	TIMS collisional cross section (sample type: Liver) [Å²]	TIMS collisional cross section (sample type: plasma) [Å²]
CCCCC/C=C\C/C=C\CCCCCCCC(=O)O[C@H](CO/C=C\CCCCCCCCCCCCCC)COP(=O)(O)OCCN [PE P- 16:0@_18:2] (ion (formula + adduct): [C39H74NO7P+H] 1+)	270.7	270.5	270.6
CCCCCCCCC/C=C\CCCCCCCC(=O)O[C@H](CO/C=C\CCCCCCCCCCCCCC)COP(=O)(O)OCCN [PE P- 16:0@_19:1] (ion (formula + adduct): [C40H78NO7P+H] 1+)	277.5		
CCCCCCCC/C=C\CCCCCCCCCC(=O)O[C@H](CO/C=C\CCCCCCCCCCCCCC)COP(=O)(O)OCCN [PE P- 16:0@_20:1] (ion (formula + adduct): [C41H80NO7P+H] 1+)	280.8		
CCCCC/C=C\C/C=C\C/C=C\CCCCCCC(=O)O[C@H](CO/C=C\CCCCCCCCCCCCCC)COP(=O)(O)OCCN [PE P- 16:0@_20:3] (ion (formula + adduct): [C41H76NO7P+H] 1+)	275.1		276.2
CCCCC/C=C\C/C=C\C/C=C\C/C=C\CCCC(=O)O[C@H](CO/C=C\CCCCCCCCCCCCCC)COP(=O)(O)OCCN [PE P- 16:0@_20:4] (ion (formula + adduct): [C41H74NO7P+H] 1+)		273.9	
CCCCC/C=C\C/C=C\C/C=C\C/C=C\CCCCCC(=O)O[C@H](CO/C=C\CCCCCCCCCCCCCC)COP(=O)(O)OCCN [PE P- 16:0@_22:4] (ion (formula + adduct): [C43H78NO7P+H] 1+)		281.6	281.6
CC/C=C\C/C=C\C/C=C\C/C=C\C/C=C\C/C=C\CCC(=O)O[C@H](CO/C=C\CCCCCCCCCCCCCC)COP(=O)(O)OCCN [PE P- 16:0@_22:6] (ion (formula + adduct): [C43H74NO7P+H] 1+)	277.3		277.4
CCCCCCCCCCCCCC/C=C\OC[C@H](COP(=O)(O)OCCN)OC(=O)CCCCCCCCCCCCCCC [PE P- 16:0_16:0] (ion (formula + adduct): [C37H74NO7P+H] 1+)	272		
CCCCCCCC/C=C\CCCCCCCC(=O)O[C@H](CO/C=C\CCCCCCCCCCCCCCCC)COP(=O)(O)OCCN [PE P- 18:0@_18:1] (ion (formula + adduct): [C41H80NO7P+H] 1+)			281.4
CCCCC/C=C\C/C=C\CCCCCCCC(=O)O[C@H](CO/C=C\CCCCCCCCCCCCCCCC)COP(=O)(O)OCCN [PE P- 18:0@_18:2] (ion (formula + adduct): [C41H78NO7P+H] 1+)		278	
CCCCC/C=C\C/C=C\C/C=C\CCCCCCC(=O)O[C@H](CO/C=C\CCCCCCCCCCCCCCCC)COP(=O)(O)OCCN [PE P- 18:0@_20:3] (ion (formula + adduct): [C43H80NO7P+H] 1+)	283.7 ± 0.71		282.7
CCCCC/C=C\C/C=C\C/C=C\C/C=C\CCCC(=O)O[C@H](CO/C=C\CCCCCCCCCCCCCCCC)COP(=O)(O)OCCN [PE P- 18:0@_20:4] (ion (formula + adduct): [C43H78NO7P+H] 1+)	281.6	281.6	281.6 ± 0.14
CC/C=C\C/C=C\C/C=C\C/C=C\C/C=C\C/C=C\CCC(=O)O[C@H](CO/C=C\CCCCCCCCCCCCCCCC)COP(=O)(O)OCCN [PE P- 18:0@_22:6] (ion (formula + adduct): [C45H78NO7P+H] 1+)		285	284.2
CCCCC/C=C\C/C=C\CCCCCCCC(=O)O[C@H](CO/C=C\CCCCCCCCCCCCCCCCCC)COP(=O)(O)OCCN [PE P- 20:0@_18:2] (ion (formula + adduct): [C43H82NO7P+H] 1+)			285
CCCCC/C=C\C/C=C\C/C=C\CCCCCCC(=O)O[C@H](CO/C=C\CCCCCCCCCCCCCCCCCC)COP(=O)(O)OCCN [PE P- 20:0@_20:3] (ion (formula + adduct): [C45H84NO7P+H] 1+)	290.7		
CCCCC/C=C\C/C=C\C/C=C\C/C=C\CCCC(=O)O[C@H](CO/C=C\CCCCCCCCCCCCCCCCCC)COP(=O)(O)OCCN [PE P- 20:0@_20:4] (ion (formula + adduct): [C45H82NO7P+H] 1+)		288.7	
CC/C=C\C/C=C\C/C=C\C/C=C\C/C=C\CCCC(=O)OC[C@H](COP(=O)(O)O[C@H]1C(O)C(O)C(O)[C@@H](O)C1O)OC(=O)CCCCCCCCCCCCCCCCC (some centres not stated) [PI 20:5_18:0@] (ion (formula + adduct): [C47H81O13P+H] 1+)			308
CCCCCCCCCCCCCCC(=O)OC[C@H](COP(=O)(O)OC[C@H](N)C(=O)O)OC(=O)CCCCCCCCCCCCC [PS 15:0_14:0] (ion (formula + adduct): [C35H68NO10P+Na] 1+)		270.3	
CCCCCC/C=C\CCCCCCCCCC(=O)O[C@H](COC(=O)CCCCCCCCCCCCCCC)COP(=O)(O)OC[C@H](N)C(=O)O [PS 16:0_18:1@] (ion (formula + adduct): [C40H76NO10P+H] 1+)	282.1		
CCCCCCCCCCC/C=C/[C@@H](O)[C@H](COP(=O)([O-])OCC[N+](C)(C)C)NC(=O)CCCCCCCCCCCCCCC [SM d16:1_16:0@] (ion (formula + adduct): [C37H75N2O6P+H] 1+)			279.1
CCCCCCCCCCCCCCCCCCCCCCCC(=O)N[C@@H](COP(=O)([O-])OCC[N+](C)(C)C)[C@H](O)CCCCCCCCCCCCCCC [SM d18:0_24:0@] (ion (formula + adduct): [C47H97N2O6P+H] 1+)			309.6

The remaining lines, values ahead:

TIMS collisional cross section (sample type: HeLa) [Å²]	TIMS collisional cross section (sample type: Liver) [Å²]	TIMS collisional cross section (sample type: plasma) [Å²]	Compound
		294.45 ± 0.21	CCCCCCCC/C=C\CCCCCCCCCCCC(=O)N[C@@H](COP(=O)([O-])OCC[N+](C)(C)C)[C@H](O)/C=C/CCCCCCCCCCC [SM d16:1_22:1@] (ion (formula + adduct): [C43H85N2O6P+H] 1+)
		299.8	CCCCCCCC/C=C\CCCCCCCCCCCCCC(=O)N[C@@H](COP(=O)([O-])OCC[N+](C)(C)C)[C@H](O)/C=C/CCCCCCCCCCC [SM d16:1_24:1@] (ion (formula + adduct): [C45H89N2O6P+H] 1+)
302.1			CCCCCCCC/C=C\CCCCCCCCCCCCCC(=O)N[C@@H](COP(=O)([O-])OCC[N+](C)(C)C)[C@H](O)/C=C/CCCCCCCCCCCC [SM d17:1_24:1@] (ion (formula + adduct): [C46H91N2O6P+H] 1+)
		287.5	CCCCCCCC/C=C\CCCCCCCC(=O)N[C@@H](COP(=O)([O-])OCC[N+](C)(C)C)[C@H](O)/C=C/CCCCCCCCCCCCC [SM d18:1@_18:1@] (ion (formula + adduct): [C41H81N2O6P+H] 1+)
279.1			CCCCCCCCCCCCC/C=C/[C@@H](O)[C@H](COP(=O)([O-])OCC[N+](C)(C)C)NC(=O)CCCCCCCCCCCCC [SM d18:1_14:0@] (ion (formula + adduct): [C37H75N2O6P+H] 1+)
284.9	285	285.4	CCCCCCCCCCCCC/C=C/[C@@H](O)[C@H](COP(=O)([O-])OCC[N+](C)(C)C)NC(=O)CCCCCCCCCCCCCCC [SM d18:1_16:0@] (ion (formula + adduct): [C39H79N2O6P+H] 1+)
		297	CCCCCCCCCCCCC/C=C/[C@@H](O)[C@H](COP(=O)([O-])OCC[N+](C)(C)C)NC(=O)CCCCCCCCCCCCCCCCCCC [SM d18:1_20:0@] (ion (formula + adduct): [C43H87N2O6P+H] 1+)
	302.3	301.9	CCCCCCCCCCCCC/C=C/[C@@H](O)[C@H](COP(=O)([O-])OCC[N+](C)(C)C)NC(=O)CCCCCCCCCCCCCCCCCCCCC [SM d18:1_22:0@] (ion (formula + adduct): [C45H91N2O6P+H] 1+)
	299.3	299	CCCCCCCC/C=C\CCCCCCCCCCCC(=O)N[C@@H](COP(=O)([O-])OCC[N+](C)(C)C)[C@H](O)/C=C/CCCCCCCCCCCCC [SM d18:1_22:1@] (ion (formula + adduct): [C45H89N2O6P+H] 1+)
308.3		308.1	CCCCCCCCCCCCC/C=C/[C@@H](O)[C@H](COP(=O)([O-])OCC[N+](C)(C)C)NC(=O)CCCCCCCCCCCCCCCCCCCCCCC [SM d18:1_24:0@] (ion (formula + adduct): [C47H95N2O6P+H] 1+)
305.4 ± 0.14	305.3	305.5	CCCCCCCC/C=C\CCCCCCCCCCCCCC(=O)N[C@@H](COP(=O)([O-])OCC[N+](C)(C)C)[C@H](O)/C=C/CCCCCCCCCCCCC [SM d18:1_24:1@] (ion (formula + adduct): [C47H93N2O6P+H] 1+)
275			CCC/C=C\CCCCCCCC/C=C/[C@@H](O)[C@H](COP(=O)([O-])OCC[N+](C)(C)C)NC(=O)CCCCCCCCCCCCC [SM d18:2_14:0@] (ion (formula + adduct): [C37H73N2O6P+H] 1+)
281.4		281.3	CCC/C=C\CCCCCCCC/C=C/[C@@H](O)[C@H](COP(=O)([O-])OCC[N+](C)(C)C)NC(=O)CCCCCCCCCCCCCCC [SM d18:2_16:0@] (ion (formula + adduct): [C39H77N2O6P+H] 1+)
		299.9	CCC/C=C\CCCCCCCC/C=C/[C@@H](O)[C@H](COP(=O)([O-])OCC[N+](C)(C)C)NC(=O)CCCCCCCCCCCCCCCCCCCCC [SM d18:2_22:0@] (ion (formula + adduct): [C45H89N2O6P+H] 1+)

Source: the supplement of paper PMC6965134
